# Measured values as given in patent publication US20040191907A1, “Cultured cells of Ficus stipulata Thunb. (=Ficus thunbergii) and a method for culturing tissues of the Ficus stipulata Thunb. by using said cultured cells” (HIROSHIMA UNIVERSITY, priority 2001, published 2004).
# Tests used:
# [1] = tested on: cut pieces of the leaf, shoot and root tissues of the Ficus stipulata Thunb.; test: Experiment 1: polyblast formation from cut pieces cultured on medium containing thidiazuron and/or benzyladenine; format: cell-based; settings: for Number of cut piece* (cut pieces with polyblast formation × 100/cut piece) / Number of shoots/cut piece: one month after the culturing; for induction of the Ficus stipulata Thunb. (polyblast formation / redifferentiation): culture medium containing at least one of TDZ and/or BA
# Method: A culture medium in which the MS culture medium or the WP culture medium was used as a fundamental culture medium and 1% sucrose and 0.3% Gellan Gum were added as the carbonaceuous source and a gelling agent, respectively, was used.
# Cut pieces, 0.5˜1 mm long, were prepared from leaf, shoot and root tissues of the Ficus stipulata Thunb. asepatically cultured. The cut pieces of the leaf, shoot and root tissues of the Ficus stipulata Thunb. thus prepared were implanted on a culture medium containing thidiazuron and/or benzyladenine as plant hormones, thereby culturing the Ficus stipulata Thunb. One month after the culturing, it was observed that polyblasts were formed from the cut pieces. The polyblasts were cut out, their cut edge were coated with iondoleacetic acid, and the polyblasts were implanted into the above culture medium or a culture containing pearlite and vermiculite, and allowed to take roots.
# [2] = tested on: cut pieces from stem apexes, nodes and stem portions of Ficus stipulata Thunb.; test: Experiment 2: redifferentiation condition, polyblasts and buds formed at stem apex cut pieces; format: cell-based; settings: for Number of cut pieces* in which polyflasts were formed at a stem apex: of 4 cut pieces; for Number of cut pieces* in which polyflasts were formed at a stem apex / Number of buds formed: six weeks; for Number of buds formed: stem apex; for redifferential state: used as the plant hormone, bright condition, WP culture medium
# Method: A redifferentiation condition most suitable for the introduction of a gene into the Ficus stipulata Thunb. was examined, and the gene was tried introduced thereinto.
# First, the redifferentiation condition was examined. As the Ficus stipulata Thunb., one sterilized and aseptically subcultured was used. The Ficus stipulata Thunb. aseptically grown (4 to 6 weeks after implanting the cutting) used, and cut pieces were prepared from stem apexes, nodes and stem portions, and implanted in the culture medium. Six weeks later, the number and the shape of buds were observed. In culturing the Ficus stipulata Thunb., 1/3 of a block of Florialite (a mixture of vermiculite and cellulose fibers) was added into a test tube (30×200 mm), to which 15 ml of the MS culture medium or the WP culture medium was added. The test tube was closed with a polypropylene cap, which was placed in an autoclave.
# A braird appearing in the Ficus stipulata Thunb. having been aseptically subcultured in an Agripot (a plastic container) was cut by about 2 to 3 cm, its cut section was immersed into a 1 g/l solution (1 g/l) of 4-(3-indolyl)butyric acid, and the cut piece was implanted in the test piece thus prepared, and subjected to 4 to 8 week culturing.
# The culturing conditions were: atmospheric temperature 25° C., illumination intensity 30˜40 μEm^−2s^−1, a bright condition of 30˜40μEm^−2s^−1 for 15 hours and a dark condition of 1˜2μEm^−2s^−1 for 9 hours.
# The MS culture medium or the WP culture medium was used as a fundamental culture medium. Sucrose 2% was added into each of the culture media, thereby adjusting the pH values of the MS culture medium and the WP culture medium to 5.6 and 5.2, respectively. Further, Gellan Gum 3% was added to the culture medium, and it was autoclaved at 120° C. for 15 minutes, thereby preparing a solid culture medium. As plant hormones, […] (NAA), benzylaminopurine (BA), thidiazuron(TDZ), abscisic acid (ABA) and silver nitrate (AgNO3) were used.
smiles,measurement,setting,value
"c1ccc(CNc2ncnc3nc[nH]c23)cc1 [BA, benzyladenine]",Number of cut piece* (cut pieces with polyblast formation × 100/cut piece),"[1]; BA 9 nM, TDZ 0 nM",50
same,Number of shoots/cut piece,"[1]; BA 9 nM, TDZ 0 nM",1.8 ± 2.4
same,Number of cut piece* (cut pieces with polyblast formation × 100/cut piece),"[1]; BA 22 nM, TDZ 0 nM",100
same,Number of shoots/cut piece,"[1]; BA 22 nM, TDZ 0 nM",3.5 ± 0.6
same,Number of cut piece* (cut pieces with polyblast formation × 100/cut piece),"[1]; BA 36 nM, TDZ 0 nM",100
same,Number of shoots/cut piece,"[1]; BA 36 nM, TDZ 0 nM",2.5 ± 1.0
same,Number of cut piece* (cut pieces with polyblast formation × 100/cut piece),"[1]; BA 44 nM, TDZ 0 nM",100
same,Number of shoots/cut piece,"[1]; BA 44 nM, TDZ 0 nM",3.8 ± 0.5
same,induction of the Ficus stipulata Thunb. (polyblast formation / redifferentiation),[1],could be induced at a high probability
same,Number of cut pieces* in which polyflasts were formed at a stem apex,"[2]; BA 8.9 nM, TDZ 0 nM",2
same,Number of buds formed,"[2]; BA 8.9 nM, TDZ 0 nM",1.8 ± 2.4
same,Number of cut pieces* in which polyflasts were formed at a stem apex,"[2]; BA 22.2 nM, TDZ 0 nM",4
same,Number of buds formed,"[2]; BA 22.2 nM, TDZ 0 nM",3.5 ± 0.6
same,Number of cut pieces* in which polyflasts were formed at a stem apex,"[2]; BA 35.5 nM, TDZ 0 nM",4
same,Number of buds formed,"[2]; BA 35.5 nM, TDZ 0 nM",2.5 ± 1.0
same,Number of cut pieces* in which polyflasts were formed at a stem apex,"[2]; BA 44.4 nM, TDZ 0 nM",4
same,Number of buds formed,"[2]; BA 44.4 nM, TDZ 0 nM",3.8 ± 0.5
same,redifferential state,[2],good redifferential state
"O=C(Nc1ccccc1)Nc1cnns1 [TDZ, thidiazuron]",Number of cut piece* (cut pieces with polyblast formation × 100/cut piece),"[1]; BA 0 nM, TDZ 1 nM",100
same,Number of shoots/cut piece,"[1]; BA 0 nM, TDZ 1 nM",1.5 ± 1.0
same,Number of cut piece* (cut pieces with polyblast formation × 100/cut piece),"[1]; BA 0 nM, TDZ 1 × 10^2 nM",100
same,Number of shoots/cut piece,"[1]; BA 0 nM, TDZ 1 × 10^2 nM",2.5 ± 0.6
same,Number of cut piece* (cut pieces with polyblast formation × 100/cut piece),"[1]; BA 0 nM, TDZ 1 × 10^4 nM",100
same,Number of shoots/cut piece,"[1]; BA 0 nM, TDZ 1 × 10^4 nM",1.5 ± 1.0
same,induction of the Ficus stipulata Thunb. (polyblast formation / redifferentiation),[1],could be induced at a high probability
same,Number of cut pieces* in which polyflasts were formed at a stem apex,"[2]; BA 0 nM, TDZ 1 nM",4
same,Number of buds formed,"[2]; BA 0 nM, TDZ 1 nM",1.5 ± 1.0
same,Number of cut pieces* in which polyflasts were formed at a stem apex,"[2]; BA 0 nM, TDZ 10^2 nM",4
same,Number of buds formed,"[2]; BA 0 nM, TDZ 10^2 nM",2.5 ± 0.6
same,Number of cut pieces* in which polyflasts were formed at a stem apex,"[2]; BA 0 nM, TDZ 10^4 nM",4
same,Number of buds formed,"[2]; BA 0 nM, TDZ 10^4 nM",1.5 ± 1.0
same,redifferential state,[2],good redifferential state
